For orientation: inhibition means the change of the read-out against control, counted positive when it falls.

This experiment relates to Streptococcus pyogenes (ATCC# 97-03 14289). Description: Anti-microbial screen (growth inhibition, OD 570 nm). Format: cell-based. As to conditions: ATCC97, compounds at 170 μg/ml, Todd Hewitt Broth, read at 4 hrs. As for the experimental part:
Streptococcus pyogenes (ATCC# 97-03 14289) were grown in Todd Hewitt Broth (THB) (Difco Laboratories #0492-17-6) overnight until they reached an optical density of (OD=0.636@ 570 nm) by reading 0.1 ml in a 96 well microtiter plate in a Molecular Devices Thermomax. This preparation was kept frozen as stocks in 30% v/v glycerol in 1.5 ml aliquots at −70 C° until used. Prior to screening, 1.5 ml aliquots were thawed and diluted into 50 ml THB. 200 μl of this dilution was added to 92 wells of microtiter plate. To three wells THB (200 μl) was added to serve as a blank and a sterility control. Test compounds in DMSO and appropriate concentrations of DMSO were added to Growth/Solvent Controls at 0 time. Plates were read at 0 time at 570 nm in the Molecular Devices plate reader to obtain compounds correction factors for insoluble or colored compounds. Plates were read again at 4 hrs.
Compounds were assayed at a concentration of 170 μg/ml. Percent inhibition for each compound was calculated using the following formulae:
Color correct=(O.D. 0 hr−Blank 0 hr)−(Solvent Control 0 hr−Blank 0 hr)
% Inhibition=100−(O.D. test compound 4 hr−Blank 4 hr−color correct) divided by (O.D. growth/solvent control 4 hr−Blank 4 hr)
As for `COCCN(CCOC)C(=O)c1ccc2c(c1)nc1n2C(CCCNC(=N)N)C(=O)Nc2ccc(N(C)Cc3ccccc3)cc2-1` (stereo not shown) [6000#59152], the inhibition at 170 µg/mL was 97.2%.
Next, `CCOC(=O)C1CCCN(c2ccc3c(c2)-c2nc4cc(C(=O)N5CCC(NC(C)=O)C5)ccc4n2C(CCCNC(=N)N)C(=O)N3)C1` (stereo not shown) [6000#59317]: 96.6%; `CCOC(=O)C1CCN(c2ccc3c(c2)-c2nc4cc(C(=O)N5CCC(NC(C)=O)C5)ccc4n2C(CCCNC(=N)N)C(=O)N3)CC1` (stereo not shown) [6000#59325]: 95.2%; `CC(=O)NC1CCN(C(=O)c2ccc3c(c2)nc2n3C(CCCNC(=N)N)C(=O)Nc3ccc(N4CCSCC4)cc3-2)C1` (stereo not shown) [6000#59355]: 97.2%.
For `CCOC(=O)N1CCN(C(=O)c2ccc3c(c2)nc2n3C(CCCNC(=N)N)C(=O)Nc3ccc(NCCCSC)cc3-2)CC1` (stereo not shown) [6000#59387] the value was 97.8%; for `CCOC(=O)N1CCN(C(=O)c2ccc3c(c2)nc2n3C(CCCNC(=N)N)C(=O)Nc3ccc(Sc4nc(C)cc(C)n4)cc3-2)CC1` (stereo not shown) [6000#59393], 96.1%.
Next, `CCOC(=O)N1CCN(C(=O)c2ccc3c(c2)nc2n3C(CCCNC(=N)N)C(=O)Nc3ccc(Sc4ccccn4)cc3-2)CC1` (stereo not shown) [6000#59425]: 96.8%; `CCOC(=O)N1CCN(C(=O)c2ccc3c(c2)nc2n3C(CCCNC(=N)N)C(=O)Nc3ccc(N4CCSCC4)cc3-2)CC1` (stereo not shown) [6000#59435]: 96.1%; `CCOC(=O)N1CCN(C(=O)c2ccc3c(c2)nc2n3C(CCCNC(=N)N)C(=O)Nc3ccc(N(CC)CC)cc3-2)CC1` (stereo not shown) [6000#59439]: 96.4%.
`CC(=O)NCCNC(=O)c1ccc2c(c1)nc1n2C(CCCNC(=N)N)C(=O)Nc2ccc(NCc3ccc(F)cc3)cc2-1` (stereo not shown) [6000#59512]: the inhibition at 170 µg/mL worked out at 98.7%.
Turning to `CN(C)CCN(C)c1ccc2c(c1)-c1nc3cc(Br)ccc3n1C(CCCNC(=N)N)C(=O)N2` (stereo not shown) [6000#60735], the inhibition at 170 µg/mL came out at 99.9%.
Next, `CC(=O)NCCNc1ccc2c(c1)-c1nc3cc(Br)ccc3n1C(CCCNC(=N)N)C(=O)N2` (stereo not shown) [6000#60738]: 96.5%; `CC(=O)N1CCN(c2ccc3c(c2)-c2nc4cc(Br)ccc4n2C(CCCNC(=N)N)C(=O)N3)CC1` (stereo not shown) [6000#60754]: 97.3%.
Next, `CCOCCNc1ccc2c(c1)-c1nc3cc(Br)ccc3n1C(CCCNC(=N)N)C(=O)N2` (stereo not shown) [6000#60778]: 98.8%; `N=C(N)NCCCC1C(=O)Nc2ccc(N3CCOCC3)cc2-c2nc3cc(Br)ccc3n21` (stereo not shown) [6000#60794]: 97.3%; `CCOC(=O)N1CCN(c2ccc3c(c2)-c2nc4ccccc4n2C(CCCNC(=N)N)C(=O)N3)CC1` (stereo not shown) [6000#60826]: 95%.
For `Cn1cnnc1Sc1ccc2c(c1)-c1nc3ccccc3n1C(CCCNC(=N)N)C(=O)N2` (stereo not shown) [6000#60857] the value was 95.3%; for `N=C(N)NCCCC1C(=O)Nc2ccc(N3CCSCC3)cc2-c2nc3ccccc3n21` (stereo not shown) [6000#60875], 101%.
In the case of `CCN(CC)c1ccc2c(c1)-c1nc3ccccc3n1C(CCCNC(=N)N)C(=O)N2` (stereo not shown) [6000#60879], the inhibition at 170 µg/mL was 97.4%.
